Experimental data published in a compilation of properties of binary mixtures (doi:10.1021/acs.jced.2c00024).

Assay: xn = mol fraction of the nth substance listed
Settings: 101 kPa, x2 = 0

O=C1CCCO1 + [S-]C#N.COCCN1C=[N+](C=C1)C
Settings | viscosity [mPa·s]
288.15 K | 2.02
293.15 K | 1.86
298.15 K | 1.72
303.15 K | 1.59
308.15 K | 1.48
318.15 K | 1.29
323.15 K | 1.21
328.15 K | 1.14
333.15 K | 1.08
338.15 K | 1.02
343.15 K | 0.97
